# Measured values reported in PubChem BioAssay (NCI).
#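 Step 1: Grow cells in 96-well plates. Step 2: Expose to compound for 48 hours at 5 concentrations. Step 3: Interpolate endpoints linearly; if unreached, use highest concentration. GI50 marks 50% less growth. TGI: total growth inhibition.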
# What was measured:
# Assay in all cases: NCI tumour cell line growth inhibition, 48 h
# [1] = tested on: OVCAR-5 ovarian
# [2] = tested on: NCI-H460 lung
# [3] = tested on: RPMI-8226 leukemia
# [4] = tested on: SR leukemia
# [5] = tested on: HOP-62 NSCLC
# [6] = tested on: SW-620 colon
# [7] = tested on: HCT-116 colon
# [8] = tested on: PC-3 prostate
# [9] = tested on: SK-MEL-2 melanoma
# [10] = tested on: HL-60(TB) leukemia
# [11] = tested on: OVCAR-8 ovarian
# [12] = tested on: SNB-75 CNS
# [13] = tested on: HS 578T breast
# [14] = tested on: NCI-H23 lung
# [15] = tested on: UO-31 renal
# [16] = tested on: ACHN renal
# [17] = tested on: SK-MEL-28 melanoma
# [18] = tested on: MDA-MB-435
# [19] = tested on: SNB-19 CNS
# [20] = tested on: SN12C renal
# [21] = tested on: NCI-H522 lung
# [22] = tested on: UACC-62 melanoma
# [23] = tested on: MOLT-4 leukemia
# [24] = tested on: KM12 colon
# [25] = tested on: U251 CNS
# [26] = tested on: MDA-MB-231 breast
# [27] = tested on: TK-10 renal
# [28] = tested on: DU-145 prostate
# [29] = tested on: 786-0 renal
# [30] = tested on: SK-MEL-5 melanoma
# [31] = tested on: MCF7 breast
# [32] = tested on: BT-549 breast
# [33] = tested on: SF-295 CNS
# [34] = tested on: NCI-H226 lung
# [35] = tested on: SF-268 CNS
# [36] = tested on: A549 NSCLC
# [37] = tested on: SF-539 CNS
# [38] = tested on: EKVX NSCLC
# [39] = tested on: HT29 colon
# [40] = tested on: CAKI-1 renal
# [41] = tested on: COLO 205 colon
# [42] = tested on: A498 renal
# [43] = tested on: OVCAR-3 ovarian
# [44] = tested on: IGROV1 ovarian
# [45] = tested on: HCT-15 colon
# [46] = tested on: RXF 393 renal
# [47] = tested on: K-562 leukemia
# [48] = tested on: NCI/ADR-RES ovarian
# [49] = tested on: LOX IMVI melanoma
structure (smiles),measurement,setting,value
COc1ccc(/C=C/C(=O)c2ccc(Cl)cc2Cl)cc1,GI50,[1],25.5 µM
same,TGI,[1],78.5 µM
same,GI50,[2],19.2 µM
same,TGI,[2],41.3 µM
same,GI50,[3],3.03 µM
same,TGI,[3],6.31 µM
same,GI50,[4],1.88 µM
same,TGI,[4],> 100 µM
same,GI50,[5],20.3 µM
same,TGI,[5],48.8 µM
same,GI50,[6],9.36 µM
same,TGI,[6],> 100 µM
same,GI50,[7],9.05 µM
same,TGI,[7],24.5 µM
same,GI50,[8],6.1 µM
same,TGI,[8],21.9 µM
same,GI50,[9],24.4 µM
same,TGI,[9],70.9 µM
same,GI50,[10],9.98 µM
same,TGI,[10],38.1 µM
same,GI50,[11],21.3 µM
same,TGI,[11],55.9 µM
same,GI50,[12],22.2 µM
same,TGI,[12],44.1 µM
same,GI50,[13],26.2 µM
same,TGI,[13],65.4 µM
same,GI50,[14],18.8 µM
same,TGI,[14],42.8 µM
same,GI50,[15],29.1 µM
same,TGI,[15],94.5 µM
same,GI50,[16],17.3 µM
same,TGI,[16],33.8 µM
same,GI50,[17],34 µM
same,TGI,[17],73.1 µM
same,GI50,[18],11.9 µM
same,TGI,[18],44.5 µM
same,GI50,[19],21.5 µM
same,TGI,[19],75.3 µM
same,GI50,[20],20.4 µM
same,TGI,[20],43.2 µM
same,GI50,[21],30.1 µM
same,TGI,[21],> 100 µM
same,GI50,[22],15 µM
same,TGI,[22],30.3 µM
same,GI50,[23],3.53 µM
same,TGI,[23],> 100 µM
same,GI50,[24],13.8 µM
same,TGI,[24],40.5 µM
same,GI50,[25],13.2 µM
same,TGI,[25],31.3 µM
same,GI50,[26],20.5 µM
same,TGI,[26],46.7 µM
same,GI50,[27],18.9 µM
same,TGI,[27],37.4 µM
same,GI50,[28],16 µM
same,TGI,[28],33.1 µM
same,GI50,[29],13.9 µM
same,TGI,[29],30.7 µM
same,GI50,[30],17.9 µM
same,TGI,[30],39 µM
same,GI50,[31],9.75 µM
same,TGI,[31],27.5 µM
same,GI50,[32],16.7 µM
same,TGI,[32],36.8 µM
same,GI50,[33],20.4 µM
same,TGI,[33],53.4 µM
same,GI50,[34],20.4 µM
same,TGI,[34],46.6 µM
same,GI50,[35],19 µM
same,TGI,[35],41.1 µM
same,GI50,[36],21.4 µM
same,TGI,[36],53.6 µM
same,GI50,[37],18.9 µM
same,TGI,[37],37.8 µM
same,GI50,[38],20.1 µM
same,TGI,[38],47.3 µM
same,GI50,[39],33.8 µM
same,TGI,[39],> 100 µM
same,GI50,[40],23.7 µM
same,TGI,[40],50.1 µM
same,GI50,[41],32 µM
same,TGI,[41],> 100 µM
same,GI50,[42],10.7 µM
same,TGI,[42],24.2 µM
same,GI50,[43],18.9 µM
same,TGI,[43],39 µM
same,GI50,[44],20.5 µM
same,TGI,[44],59 µM
same,GI50,[45],12.2 µM
same,TGI,[45],37 µM
same,GI50,[46],12.7 µM
same,TGI,[46],29.9 µM
same,GI50,[47],3.37 µM
same,TGI,[47],> 100 µM
same,GI50,[48],15.9 µM
same,TGI,[48],41.5 µM
same,GI50,[49],15.9 µM
same,TGI,[49],32.1 µM
